The values below come from patent US11384078B2, “5,6-fused-bicyclic compounds and compositions for the treatment of parasitic diseases” (NOVARTIS AG, priority 2017, dated 2022).

Common to all, as to format: cell-based
Experiment [1] deals with L. donovani HU3 strain in mouse peritoneal macrophages. Kind of experiment: Assay for inhibition of parasitemia of Leishmania donovani in mouse macrophages (SYBR Green nuclei count, high-content imaging). As to conditions: Leishmania donovani, Peritoneal macrophage, read-out: L. donovani in Mouse Macrophages EC50. The source says:
Assay for Inhibition of Parasitemia of Leishmania donovani in Mouse Macrophages
The assay measures the increase in the parasite number in the assayed plate well using a DNA intercalating dye, SYBR Green I® dye (INVITROGEN) to stain Leishmania cell nuclei. L. donovani HU3 strain is propagated by infecting BALB/c mice through tail vein injection with 10^7 Leishmania parasites. Infected mice are allowed to develop infection during 9-11 weeks post-infection. During this time, the parasites accumulate in the infected mouse spleens to large numbers, and the infected mice serve as the source of parasites for the in vitro measurement of compound efficacies. To assay a compound for anti-leishmanial activity, peritoneal macrophages isolated from non-infected BALB/c mice are seeded into 384-well plates at density 2×10^4 macrophages per well in […] of medium (RPM11640, 10% fetal serum albumin, 10 mM HEPES, 1 mM sodium pyruvate, 1% Pen/Strep). Subsequently, the seeded plates are placed into an incubator set to maintain 37° C. temperature and atmosphere with 5% CO2.
The next day, Leishmania parasites are isolated from the spleens of mice infected for 9-11 weeks and 4×10^5 isolated parasites in […] of the above media are added to each plate well. Plates are then returned into incubators and infection is allowed to proceed for 24 hours. After the infection of macrophages is completed, […] of compounds of the invention in the above medium, which also contains 5% DMSO, are added to plate wells containing infected macrophages. At the same time control compounds (miltefosine and amphotericin B) and DMSO are added to plates to serve as the positive and negative controls, respectively. After the compound addition, the plates are returned into incubator and cells infected with parasites are cultured for 5 days. At the end of cultivation, […] of 8% paraformaldehyde is added to plate wells and incubated for 15 min at room temperature. Following the incubation, the paraformaldehyde from plate wells is aspirated, and […] of PBS containing 0.2% Triton X-100 is added to wells. After 15 min incubation, the solution is aspirated from wells again, and replaced with Sybr® Green Dye solution in PBS (1:125,000 dilution). Infected cells are imaged with Evotec Opera high-content microscope, and the number of parasites in well is determined by counting parasite nuclei visualized by staining with Sybr® Green dye.

Experiment [2] deals with Leishmania donovani axenic amastigote. Nature of the experiment: In vitro assay for growth inhibition of Leishmania donovani axenic amastigote (Cell TiterGlo luminescence). As to conditions: Leishmania donovani, L. donovani axenic amastigotes in vitro; read-out: L. donovani amastigotes EC50. The procedure, abridged: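 Compound-treated wells received 9600 axenic amastigotes in RPMI 1640-based medium at pH 5.5 (37 °C, 5% CO2). Growth measured as ATP luminescence (CellTiter-Glo) after 2-day incubation; DMSO and reference compounds served as controls.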

Experiment [3] concerns Trypanosoma cruzi amastigotes cultured in 3T3 fibroblast cells. Nature of the experiment: Assay for growth inhibition of kinetoplastid parasite Trypanosoma cruzi (beta-galactosidase Tulahuen strain, CPRG readout). The settings on record: Trypanosoma cruzi, Fibroblast, T. cruzi amastigotes in 3T3 fibroblast cells; read-out: Buckner infectious T. cruzi EC50. The procedure, abridged: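 3T3 fibroblasts (1,000 cells/well) plated overnight, treated with compound in DMSO, then infected with 10,000 Lac-Z-expressing Tulahuen trypomastigotes. After 6 days, 0.6 mM CPRG with 0.6% NP-40 added for 2 h at room temperature; absorbance gives relative intracellular amastigote numbers. Benznidazole and nifurtimox serve as positive controls.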

In experiment [4] the test system is Trypanosoma brucei brucei (Lister 427) strain. Nature of the experiment: Assay for growth inhibition against Trypanosoma brucei brucei (Cell TiterGlo ATP luminescence). As to conditions: Trypanosoma brucei, T. brucei brucei (Lister 427); read-out: T. Brucei (HAT) EC50. The procedure, abridged: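 Growth read-out is cellular ATP by CellTiter-Glo luminescence, measured 30 min after reagent addition, following 2-day incubation at 37 °C in CO2. Parasites (10,000/mL, HMI-9 plus 10% FBS and 10% serum plus) faced 10 threefold dilutions in duplicate; IC50 taken as 50% growth inhibition versus untreated.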

Where [5] appears, read: L. donovani in mouse peritoneal macrophages.

Where two headings read alike, the source gives them in different places.

On to `CCC(C)c1cnc2nn(-c3cc(NC(=O)N4CC(F)(F)C4)ccc3F)cc2c1` (stereo not shown) [Compound 36, N-{3-[5-(butan-2-yl)-2H-pyrazolo[3,4-b]pyridin-2-yl]-4-fluorophenyl}-3,3-difluoroazetidine-1-carboxamide], for which the EC50 was 250 nM in experiment [1] (setting [5]) and 210 nM in experiment [2].
As for `O=C(Nc1ccc(F)c(-n2cc3cc(C4CCCCC4)cnc3n2)c1)N1CC[C@@H](F)C1` [Compound 44, (3R)-N-(3-{5-cyclohexyl-2H-pyrazolo[3,4-b]pyridin-2-yl}-4-fluorophenyl)-3-fluoropyrrolidine-1-carboxamide], the EC50 in experiment [1] (setting [5]) came to 32 nM; in experiment [3] it was 22 nM; in experiment [2] it was 29 nM.
The matching figures for `CC(C)(C)c1cnc2nn(-c3cc(NC(=O)N4CC[C@@H](F)C4)ccc3F)cc2c1` [Compound 47, (3R)-N-(3-{5-tert-butyl-2H-pyrazolo[3,4-b]pyridin-2-yl}-4-fluorophenyl)-3-fluoropyrrolidine-1-carboxamide]: 27 nM, 2.8 nM and 23 nM.
`O=C(Nc1ccc(F)c(-n2cc3cc(C4CC4)cnc3n2)c1)c1ccco1` [Compound 55, N-(3-{5-cyclopropyl-2H-pyrazolo[3,4-b]pyridin-2-yl}-4-fluorophenyl)furan-2-carboxamide]: the EC50 in experiment [1] (setting [5]) turned out to be 35 nM; in experiment [3], 6.3 nM; in experiment [2], 57 nM.
In the case of `O=C(Nc1ccc(F)c(-n2cc3cc(C4CCCC4)cnc3n2)c1)c1ccco1` [Compound 56, N-(3-{5-cyclopentyl-2H-pyrazolo[3,4-b]pyridin-2-yl}-4-fluorophenyl)furan-2-carboxamide], the EC50 in experiment [1] (setting [5]) is 550 nM; in experiment [2], 240 nM.
With `CC(C)CCc1cnc2nn(-c3cc(NC(=O)c4ccco4)ccc3F)cc2c1` [Compound 63, N-{4-fluoro-3-[5-(3-methylbutyl)-2H-pyrazolo[3,4-b]pyridin-2-yl]phenyl}furan-2-carboxamide], the EC50 in experiment [1] (setting [5]) turned out to be 90 nM; in experiment [3], 14 nM; in experiment [2], 89 nM.
Turning to `CN(C)C(=O)Nc1ccc(F)c(-n2cc3cc(N(C)C)cnc3n2)c1` [Compound 143, 1-{3-[5-(dimethylamino)-2H-pyrazolo[3,4-b]pyridin-2-yl]-4-fluorophenyl}-3,3-dimethylurea], the EC50 was under 23 nM in experiment [4], 110 nM in experiment [1] (setting [5]) and 150 nM in experiment [2].
Turning to `O=C(Nc1ccc(F)c(-n2cc3cc(CC(F)(F)F)cnc3n2)c1)c1ccco1` [Compound 176, N-{4-fluoro-3-[5-(2,2,2-trifluoroethyl)-2H-pyrazolo[3,4-b]pyridin-2-yl]phenyl}furan-2-carboxamide], the EC50 in experiment [1] (setting [5]) turned out to be 69 nM; in experiment [3], 9.5 nM; in experiment [2] it was 71 nM.
As to `CC1(O)CN(c2cnc3nn(-c4cc(NC(=O)N5CC(F)C5)ccc4F)cc3c2)C1` [Compound 251, 3-fluoro-N-{4-fluoro-3-[5-(3-hydroxy-3-methylazetidin-1-yl)-2H-pyrazolo[3,4-b]pyridin-2-yl]phenyl}azetidine-1-carboxamide], the EC50 in experiment [4] amounted to 5 nM; in experiment [3], 367 nM; in experiment [2] it was 24 nM.
Turning to `O=C(Nc1ccc(F)c(-n2cc3cc(N4CCN(CC(F)(F)F)CC4)cnc3n2)c1)N1CC(F)(F)C1` [Compound 252, 3,3-difluoro-N-(4-fluoro-3-{5-[4-(2,2,2-trifluoroethyl)piperazin-1-yl]-2H-pyrazolo[3,4-b]pyridin-2-yl}phenyl)azetidine-1-carboxamide], the EC50 in experiment [4] was 5 nM; in experiment [3] it was 22 nM; in experiment [2], 183 nM.
As for `O=C(Nc1ccc(F)c(-n2cc3cc(N4CCN(CC(F)(F)F)CC4)cnc3n2)c1)N1CC[C@@H](F)C1` [Compound 253, (3R)-3-fluoro-N-(4-fluoro-3-{5-[4-(2,2,2-trifluoroethyl)piperazin-1-yl]-2H-pyrazolo[3,4-b]pyridin-2-yl}phenyl)pyrrolidine-1-carboxamide], the EC50 was 5 nM in experiment [4], 4 nM in experiment [3] and 3 nM in experiment [2].
With `[2H]C([2H])([2H])N(c1cnc2nn(-c3cc(NC(=O)N4CC(F)C4)ccc3F)cc2c1)C([2H])([2H])[2H]` [Compound 314, N-(3-[5-[bis(^2H3)methylamino]-2H-pyrazolo[3,4-b]pyridin-2-yl]-4-fluorophenyl)-3-fluoroazetidine-1-carboxamide], the EC50 turned out to be 6 nM in experiment [1] (setting [5]), 5 nM in experiment [3] and 242 nM in experiment [2].
Regarding `O=C(Nc1ccc(F)c(-n2cc3cc(-n4cccn4)cnc3n2)c1)N1CC(F)C1` [Compound 319, 3-fluoro-N-{4-fluoro-3-[5-(1H-pyrazol-1-yl)-2H-pyrazolo[3,4-b]pyridin-2-yl]phenyl}azetidine-1-carboxamide], the values for the EC50 in experiment [4], in experiment [3] and in experiment [2] were 5 nM, 1 nM and 1 nM, respectively.
As for `O=C(Nc1ccc(F)c(-n2cc3cc(C(F)(F)F)cnc3n2)c1)N1CCC1` [Compound 320, N-{4-fluoro-3-[5-(trifluoromethyl)-2H-pyrazolo[3,4-b]pyridin-2-yl]phenyl}azetidine-1-carboxamide], the EC50 in experiment [4] was 5 nM; in experiment [3], 2 nM; in experiment [2], 8 nM.
Regarding `O=C(Nc1ccc(F)c(-n2cc3cc(C(F)(F)F)cnc3n2)c1)N1CC(F)C1` [Compound 321, 3-fluoro-N-{4-fluoro-3-[5-(trifluoromethyl)-2H-pyrazolo[3,4-b]pyridin-2-yl]phenyl}azetidine-1-carboxamide], the values for the EC50 in experiment [4], in experiment [3] and in experiment [2] were 5 nM, 11 nM and 18 nM, respectively.
The matching figures for `O=C(Nc1ccc(F)c(-n2cc3cc(C(F)(F)F)cnc3n2)c1)N1CC[C@@H](F)C1` [Compound 322, (3R)-3-fluoro-N-{4-fluoro-3-[5-(trifluoromethyl)-2H-pyrazolo[3,4-b]pyridin-2-yl]phenyl}pyrrolidine-1-carboxamide]: 5 nM, 3 nM and 12 nM.
In the case of `O=C(Nc1ccc(F)c(-n2cc3cc(N4CC5(CC5)C4)cnc3n2)c1)N1CCCC1` [Compound 337, N-[3-(5-{5-azaspiro[2.3]hexan-5-yl}-2H-pyrazolo[3,4-b]pyridin-2-yl)-4-fluorophenyl]pyrrolidine-1-carboxamide], the EC50 in experiment [4] stood at 7 nM; in experiment [1] (setting [5]), 13 nM; in experiment [3], 4 nM.
With `Cc1nc(C)c(C(=O)Nc2ccc(F)c(-n3cc4cc(-c5ccccc5)cnc4n3)c2)o1` [Compound 352, N-(4-fluoro-3-(5-phenyl-2H-pyrazolo[3,4-b]pyridin-2-yl)phenyl)-2,4-dimethyloxazole-5-carboxamide], the figures for the EC50 in experiment [4], in experiment [1] (setting [5]) and in experiment [2] were 39 nM, 31 nM and 17 nM, respectively.
`O=C(Nc1ccc(F)c(-n2cc3cc(-c4ccccc4)cnc3n2)c1)N1CC(F)(F)C1` [Compound 353, 3,3-difluoro-N-(4-fluoro-3-(5-phenyl-2H-pyrazolo[3,4-b]pyridin-2-yl)phenyl)azetidine-1-carboxamide]: the values for the EC50 in experiment [4], in experiment [1] and in experiment [2] were 13 nM, 4 nM and 5 nM, respectively.
